Test results taken from PubChem BioAssay AID1508591.

Conditions: rat; liver microsomes; pH 7.4; 15.0 min; 1.0 µM

Compound	half-life
O=C(NC1CCCc2c1[nH]c1ccc(Cl)cc21)c1ccncc1 (stereo unspecified)	> 30 min
Cc1ccccc1C(=O)N1CCc2cc(-c3nc(NC(=O)Cc4ccccc4)sc3C)ccc21	24 min
COc1ncc(-c2ccc3c(Nc4cc(Oc5cc(F)cc(F)c5)cc(C(=O)O)c4)c(S(=O)(=O)NC4CC4)cnc3c2)c(OC)n1	9.87 min
CC(=O)c1c(C)n(-c2ccccc2)c2ccc(O)cc12	17 min
Cc1ccccc1C(=O)N1CCc2cc(-c3ccnc(NC(=O)Cc4ccccc4)n3)ccc21	5.5 min
COC(=O)CNC(=O)c1nc(-c2ccccc2OC)c2ccccn12	5.38 min
Nc1ncnc2c1C(=O)N(c1ccc(C3CCC(CC(=O)O)CC3)cc1)CCO2 (stereo unspecified)	> 30 min
COc1ccc(-c2noc([C@@H]3Cc4nc[nH]c4CN3C(=O)NC3CCCCC3)n2)cc1	6.59 min
CC(=O)N1CCN(c2nc(-c3ccc(Br)cc3)cs2)CC1	> 30 min
CC(C)(O)CNc1nc(Nc2ccnc(C(F)(F)F)c2)nc(-c2cccc(C(F)(F)F)n2)n1	> 30 min
CCc1ccc(C2N=C(N)Nc3nc4ccccc4n32)cc1 (stereo unspecified)	5.62 min
O=C1C(SCCO)=C(SCCO)C(=O)c2ccccc21	> 30 min
Cc1cccc(-n2ccc(=O)c(C(=O)Nc3ccc(S(=O)(=O)Nc4nccs4)cc3)n2)c1	> 30 min
COc1ccc(NC(=O)c2c(C)cccc2C)cc1S(=O)(=O)Nc1ccc(Br)cc1	5.2 min
COc1ccc(-n2c(C)cc(-c3nnc4n3CCCCC4)c2C)cc1	2.4 min
Cc1cc(-c2ccc(C)c(S(=O)(=O)NCC3CCN(Cc4ccc(F)cc4)CC3)c2)on1	5.49 min
Fc1ccc(Nc2nc(-c3ccccc3)cc(-c3ccncc3)n2)cc1F	> 30 min
O=C1CCCC2=C1C(c1[nH]ncc1Cl)N=C(Nc1nc3cc(F)ccc3o1)N2 (stereo unspecified)	17 min
CCCCN(CC)CCCNC(=O)c1ccc2c(c1)N(Cc1ccc(C)cc1)C(=O)c1ccccc1S2	4.06 min
CC(C)c1nc(CN(C)C(=O)N[C@H](C(=O)N[C@@H](Cc2ccccc2)C[C@H](O)[C@H](Cc2ccccc2)NC(=O)OCc2cncs2)C(C)C)cs1	22.1 min
c1ccc(Nc2cc3c(cn2)CN(Cc2ccsc2)CCN3)cc1	1.74 min
O=C(NC1CCCCC1)N1Cc2[nH]cnc2C[C@H]1c1nc(-c2cccc([N+](=O)[O-])c2)no1	10.3 min
CC(C)(C)c1ccc(-c2nc(SCCCOc3ccccc3)n3[nH]c(=O)cc3n2)cc1	> 30 min
O=C(NC1CC1)c1ccc(CSCc2ccccc2Cl)o1	1.74 min
CC(=O)c1c(C)[nH]c(C(=O)Nc2cccc(S(=O)(=O)Nc3ccc(Br)cc3)c2)c1C	18 min
COc1cc(C2c3cc(O)c(OC)cc3CC3C(=O)OCC32)ccc1O (stereo unspecified)	21.1 min

Compound	half-life
COc1cccc(-n2nc(C(=O)O)cc2-c2ccc(C3CCCCC3)c(Cl)c2)c1	> 30 min
Cc1ccnc(NC(=S)N2CCN(c3cccc(C(F)(F)F)n3)CC2)c1	15 min
COc1ccccc1CNS(=O)(=O)c1ccc(-c2cnc(C3CC3)o2)cc1	1.58 min
Fc1ccccc1CNCc1ccc(-c2ccnc3[nH]ccc23)cc1	1.47 min
CN(C(=O)OC(C)(C)C)[C@@H](Cc1ccc(O[S+](=O)([O-])c2cccc3cnccc23)cc1)C(=O)N1CCN(C(=O)OCc2ccccc2)CC1	1.74 min
c1ccc2[nH]c(Nc3nc(-c4ccncc4)nc4ccccc34)nc2c1	13 min
COc1ccccc1-c1[nH]nc2ncc(-c3ccc(C)cc3)nc12	3 min
Cc1cc(C)c2nc(-c3ccccn3)cc(C(=O)Nc3ccc(S(=O)(=O)Nc4onc(C)c4C)cc3)c2c1	> 30 min
COc1ccc(CNC(=O)c2sc3nc(C)cc(C)c3c2N)cc1	8.47 min
Cc1ccccc1-c1nc(NCc2ccc(-c3cccnc3)cc2)c2ccccc2n1	6.25 min
Cn1cc(Br)c(C2N=C(Nc3nc4ccccc4o3)NC3=C2C(=O)CCC3)n1 (stereo unspecified)	8.5 min
Cc1sc2c(c1C)C(c1ccc(Cl)cc1)=N[C@@H](CC(=O)OC(C)(C)C)c1nnc(C)n1-2	6.4 min
NC(=O)C1CCN(c2nc(-c3ccccc3C(F)(F)F)cs2)CC1	5.58 min
O=C(Nc1ccccc1)C1CCN(c2ncc(-c3ccc4c(c3)OCCCO4)s2)CC1	1.44 min
CN(C)c1cccc(-c2c3c(=O)n(-c4ccccc4Cl)[nH]c3cc(=O)n2C)c1	> 30 min
CC(C)OC(=O)c1ccnc2cc(C(OCCN3CCCCC3)c3ccccc3Cl)sc12 (stereo unspecified)	4.49 min
Cc1ccc([S+](=O)([O-])n2cc(Cc3ccc(-c4ccccc4)cc3)c3ccccc32)cc1	22 min
Cc1cnc(-c2ccccc2OC(C)C)nc1NCc1ccc(-n2ccnn2)cc1	6.45 min
O=c1c(-c2ccc(O)cc2)coc2cc(O)ccc12	> 30 min
CCOC(=O)NNc1ccc(N(CC)CC(C)O)nn1 (stereo unspecified)	> 30 min
O=c1[nH]c(N2CCOCC2)nc2c1CCN(Cc1ccc(Cl)cc1F)CC2	> 30 min
Cc1cnc(-c2ccccc2C2COC2)nc1NCc1ccc(-n2ccnn2)cc1	> 30 min
COc1c2c(c3c(c1CCC(=O)O)OC(C)(C)C=C3)OC(C)(C)C=C2	> 30 min
O=C(Nc1ncnc2sc3c(c12)CCC3)c1ccco1	5.6 min
COc1cccc(CN2CCCC(c3nc(-c4ccncc4)ncc3-c3ccccc3)C2)c1O (stereo unspecified)	5.95 min
